≈ marks a conversion by molar mass, not a printed value. Blank lines part the entries; values can stand above or below the compound they belong to.
Test system: antiserum KLH-R3 (I) (polyclonal anti-Rebaudioside D antibody)
Assay: Competitive indirect ELISA for Rebaudioside D (conjugate-coated format, antiserum KLH-R3 (I) / BSA-R3 coating conjugate)
Type: binding, rabbit
Settings: for cross-reactivity CR = (IC50 Rebaudioside D/IC50 compound)×100: developed immunoassay for Reb D
Protocol: The hapten R1 (rebaudioside D) (5 mg suspended in 0.5 mL of 10 mM PBS) and KLH-conjugates or BSA-R (n=2-5), (0.5 mL of conjugate at a concentration of […], 10 mM PBS) were injected intramuscularly into two New Zealand California white rabbits, with 0.5 mL of complete Freund's adjuvant in the first immunization, and 0.5 mL of incomplete Freund's adjuvant in the following. Immunizations were performed every 21 days, and 10 days after each immunization bleedings were carried out to know the title and properties of serum from each animal. After five cycles of immunization, blood was obtained by bleeding, leaving it to coagulate overnight at 4° C. Subsequently, after adding sodium azide (0.02%) serum was separated by centrifugation and stored at −80° C.
First, the avidity of the sera obtained against different coating conjugates was determined by non-competitive indirect ELISA using different antisera (serial dilutions from 1/1000 to 1/64000) and concentrations of the coating conjugates (0.001 to 1.0 mg/L). Similarly, the avidity to the enzyme-tracer was determined by a direct non-competitive ELISA using several dilutions of the tracer (serial dilutions from 0.001 to 1.0 mg/L) and serum (from 1/500 to 1/512000).
The titres obtained from conjugate-coated format indirect format (ELISA plates coated with protein-hapten) were higher than those obtained for direct format (ELISA plates coated with serum), choosing as optimal concentrations of coating conjugates and dilution of serum, those that produced absorbance values around 0.8-1.2 units in absence of analyte (Rebaudioside D), to carry out competitive tests.
Flat-bottomed polystyrene ELISA plates were coated overnight at 4° C. with 100 μL/well of the appropriate coating conjugate solution in CB. The following day, plates were washed six times with 15 mmol/L PBS-T pH 8.5, and then 50 μL of the serum dilution and 50 μL of Reb D in PBS-T were added and incubated at room temperature during 1 h. After washing, an incubation step (1 h) with 100 μL/well GAR-HRP (diluted 1/2000 in PBS-T) was accomplished, and plates washed again. Finally, 100 μL/well of substrate solution (2 mg/mL OPD and 0.012% H2O2 in 25 mmol/L sodium citrate and 62 mmol/L sodium phosphate, pH 5.5) was added. The enzymatic reaction was stopped after 10 min by addition of 2.5 mol/L H2SO4 (50 μL/well), and the absorbance was read in a dual-wavelength mode (490, 650 nm).
The optimization was performed for the most sensitive assay (antiserum KLH-R3/BSA-R3 coating conjugate) using Reb D as competitor analyte.
The influence of several experimental parameters such as ionic strength, pH, surfactant concentration and time of competition on assay characteristics was examined in order to improve the immunoassay performance (sensitivity, maximum absorbance, working or dynamic range and detection limit). Criteria used to evaluate the assay performances were sensitivity (IC50), maximum absorbance (A0), dynamic range (DR, established between the Reb D concentrations producing 20% and 80% colour inhibition) and limit of detection (LD, estimated at 10% inhibitory concentration).
Assay selectivity was evaluated by determining the cross-reactivity with two sugars derived from Stevia rebaudiana, such as rebaudioside A and stevioside. The cross reactivity values were calculated according to the following equation: CR=(IC50 [mg/L] Rebaudioside D/IC50 [mg/L] compound)×100.

[1] = cross-reactivity study, related compound as competitor

- IC50 [1]: 418,605 μg/L
- cross-reactivity CR = (IC50 Rebaudioside D/IC50 compound)×100: 8.6×10^−5%
SMILES: C=C1C[C@@]23CC[C@H]4[C@@](C)(CCC[C@@]4(C)C(=O)O[C@@H]4O[C@H](CO)[C@@H](O)[C@H](O)[C@H]4O)[C@@H]2CC[C@]1(O[C@@H]1O[C@H](CO)[C@@H](O)[C@H](O)[C@H]1O[C@@H]1O[C@H](CO)[C@@H](O)[C@H](O)[C@H]1O)C3 [Stevioside]

- IC50 (PBS 5 mmol/L, 0.05% Tween 20, pH 7.5): 1.53 ± 0.41 µg/L (≈ 1.35 nM)
- IC50 (PBS 10 mmol/L, 0.05% Tween 20, pH 7.5): 1.30 ± 0.35 µg/L (≈ 1.15 nM)
- IC50 (PBS 15 mmol/L, 0.05% Tween 20, pH 7.5): 0.77 ± 0.24 µg/L (≈ 0.682 nM)
- IC50 (PBS 20 mmol/L, 0.05% Tween 20, pH 7.5): 1.02 ± 0.28 µg/L (≈ 0.903 nM)
- IC50 (PBS 30 mmol/L, 0.05% Tween 20, pH 7.5): 1.70 ± 0.45 µg/L (≈ 1.51 nM)
- IC50 (Tween 20 0.000%, 15 mM PBS, pH 8.5): 0.68 ± 0.26 µg/L (≈ 0.602 nM)
- IC50 (Tween 20 0.010%, 15 mM PBS, pH 8.5): 0.56 ± 0.23 µg/L (≈ 0.496 nM)
- IC50 (Tween 20 0.025%, 15 mM PBS, pH 8.5): 0.58 ± 0.19 µg/L (≈ 0.514 nM)
- IC50 (Tween 20 0.050%, 15 mM PBS, pH 8.5): 0.49 ± 0.15 µg/L (≈ 0.434 nM)
- IC50 (Tween 20 0.100%, 15 mM PBS, pH 8.5): 0.39 ± 0.08 µg/L (≈ 0.345 nM)
- IC50 (optimal conditions (15 mM PBS, pH 8.5, 0.25% Tween 20), set of 20 calibration curves): 0.36 ± 0.05 µg/L (≈ 0.319 nM)
- IC50 (pH 4.5, 15 mM PBS, 0.05% Tween 20): 0.63 ± 0.21 µg/L (≈ 0.558 nM)
- IC50 (pH 5.5, 15 mM PBS, 0.05% Tween 20): 0.86 ± 0.23 µg/L (≈ 0.762 nM)
- IC50 (pH 6.5, 15 mM PBS, 0.05% Tween 20): 0.91 ± 0.27 µg/L (≈ 0.806 nM)
- IC50 (pH 7.5, 15 mM PBS, 0.05% Tween 20): 0.77 ± 0.24 µg/L (≈ 0.682 nM)
- IC50 (pH 8.5, 15 mM PBS, 0.05% Tween 20): 0.49 ± 0.15 µg/L (≈ 0.434 nM)
- IC50 (pH 9.5, 15 mM PBS, 0.05% Tween 20): 0.50 ± 0.19 µg/L (≈ 0.443 nM)
- IC50 (serum screening, before optimization, pair KLH-R3 (I)/BSA-R3 (1:2000/0.03 mg/L)): 1.30 µg/L (≈ 1.15 nM)
SMILES: C=C1C[C@@]23CC[C@H]4[C@@](C)(CCC[C@@]4(C)C(=O)O[C@@H]4O[C@H](CO)[C@@H](O)[C@H](O)[C@H]4O[C@@H]4O[C@H](CO)[C@@H](O)[C@H](O)[C@H]4O)[C@@H]2CC[C@]1(O[C@@H]1O[C@H](CO)[C@@H](O)[C@H](O[C@@H]2O[C@H](CO)[C@@H](O)[C@H](O)[C@H]2O)[C@H]1O[C@@H]1O[C@H](CO)[C@@H](O)[C@H](O)[C@H]1O)C3 [Rebaudioside D]
- detection limit (LD, estimated at 10% inhibitory concentration) (optimal conditions, 20 calibration curves): 0.01 µg/L

- IC50 [1]: 225 µg/L (≈ 233 nM)
- cross-reactivity CR = (IC50 Rebaudioside D/IC50 compound)×100: 0.16%
SMILES: C=C1C[C@@]23CC[C@H]4[C@@](C)(CCC[C@@]4(C)C(=O)O[C@@H]4O[C@H](CO)[C@@H](O)[C@H](O)[C@H]4O)[C@@H]2CC[C@]1(O[C@@H]1O[C@H](CO)[C@@H](O)[C@H](O[C@@H]2O[C@H](CO)[C@@H](O)[C@H](O)[C@H]2O)[C@H]1O[C@@H]1O[C@H](CO)[C@@H](O)[C@H](O)[C@H]1O)C3 [Rebaudioside A]
